The values below come from PubChem BioAssay (NCI).

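A five-concentration, 48-hour dose response in 96-well plates underlies each endpoint, interpolated linearly between surrounding concentrations. At the TGI there is no net growth.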 Some results are limits rather than exact numbers.

Assay in all cases: NCI anticancer screen, dose series, 48 h
Assay [1] deals with BT-549 breast.
The subject of assay [2] is LOX IMVI melanoma.
Assay [3] has as its system MCF7 breast.
The test system of assay [4] is OVCAR-5 ovarian.
The test system of assay [5] is OVCAR-8 ovarian.
For assay [6], the system named is PC-3 prostate.
In assay [7] the test system is RXF 393 renal.
The test system of assay [8] is SK-OV-3 ovarian.
Assay [9] has as its system SR leukemia.
Assay [10] deals with T-47D breast.
The subject of assay [11] is MDA-MB-231 breast.
Assay [12] concerns NCI-H460 lung.

Turning to `CC(=O)OC(C)c1cc2c(s1)C(=O)c1ccsc1C2=O` (centres undefined), the TGI in assay [1] is 0.347 µM; in assay [2], 0.119 µM; in assay [3], 1.24 µM; in assay [4] it was 0.994 µM; in assay [5] it was 0.68 µM; in assay [6] it was 0.201 µM. In addition, the TGI in [7] worked out at 0.496 µM; in assay [8], 3.7 µM; in [9], 0.365 µM; in [10], 1.79 µM.
With `COc1ccc(C2=NN(C(=O)c3ccc(Cl)cc3)C(O)(c3cc(F)c(Cl)cc3Cl)C2)cc1` (centres undefined), the TGI in assay [1], in [2], in assay [3], in assay [11], in assay [12] and in assay [4] was above 100 µM each time. Further, the TGI in assay [5], in assay [6], in [7], in assay [8] and in [10] was above 100 µM each time.
For `COc1cc2c(cc1O)C(=O)O[C@@H]1CC=C3CCN(C)[C@H]3[C@H]21`, the TGI in assay [1], in assay [3], in [11], in [4], in assay [5] and in [6] was above 25 µM each time. Further, the TGI in assay [7], in assay [8], in [9] and in assay [10] was above 25 µM in each case.
In the case of `CN1N=C(c2ccccc2)c2cc(Cl)ccc2N=C1N/N=C/c1ccc(N(C)C)cc1`, the TGI in assay [1], in [3], in [11], in assay [12], in assay [5] and in assay [6] was above 100 µM in each case. Also, the TGI in [7], in assay [8], in [9] and in [10] was above 100 µM each time.
Take `COC(=O)[C@@H]1[C@H]2CC[C@]3(C)[C@@H](OC(C)=O)CC[C@H]3[C@@H]2CC[C@H]1C(C)=O`: the TGI in assay [1], in assay [2], in assay [3], in assay [11], in assay [12] and in [4] was above 100 µM throughout. Also, the TGI in [5], in assay [6], in [7], in [8] and in [10] was above 100 µM each time.
`COC1(OC)C2C=CC1C([C@](C)(N)CO)C2` (some centres undefined): the TGI in assay [1], in assay [3], in assay [11], in assay [12], in assay [4] and in [5] was above 100 µM in each case. For the same compound, the TGI in assay [6], in [7], in assay [8], in [9] and in assay [10] was above 100 µM throughout.
For `O=Cc1ccc(-c2ccc(S(=O)(=O)O)cc2)o1`, the TGI in assay [1], in assay [2], in [3], in assay [11], in assay [12] and in assay [4] was above 100 µM each time. Further, the TGI in assay [5], in assay [6], in [7], in [8] and in [9] was above 100 µM each time.
For the compound `Cc1cnc2[nH]c(-c3ccc(Cl)cc3)cc(=O)c2c1`, the TGI in assay [1] was above 100 µM; in [2], above 100 µM; in assay [3], above 72.5 µM; in [11], above 19.9 µM; in assay [12] it was above 100 µM; in assay [4], above 31.6 µM. Besides, the TGI in assay [5], in assay [8], in assay [9] and in [10] was above 100 µM in each case.
Consider `O=C(NC(CCCCN1C(=O)c2ccccc2C1=O)P(=O)(Oc1ccccc1)Oc1ccccc1)OCc1ccccc1` (centres undefined), for which the TGI in assay [1], in assay [3], in [12], in [4], in assay [5] and in assay [6] was above 100 µM in each case. Besides, the TGI in assay [7], in assay [8], in [9] and in assay [10] was above 100 µM in each case.
Consider `O=C1c2c(O)cccc2Cc2cc(CO)cc(O)c21`, for which the TGI was 86 µM in [1]; 5.67 µM in [11]; 8.04 µM in assay [12]; 15.2 µM in assay [4]; 12.8 µM in assay [5]; 4.28 µM in [6]. For the same compound, the TGI in [9] was 12.1 µM; in assay [10], 11.9 µM.
Take `Nn1c(CCCCCCCCc2n[nH]c(=S)n2N)n[nH]c1=S`: the TGI in assay [1], in assay [3], in assay [11], in assay [12], in assay [4] and in assay [5] was above 100 µM each time. The TGI in [6], in [7], in assay [8], in [9] and in [10] was above 100 µM throughout.
With `COc1cc(/C=N/n2c(C)n[nH]c2=O)cc(OC)c1OC`, the TGI in assay [1], in [3], in assay [11], in assay [12], in assay [4] and in assay [5] was above 100 µM each time. Moreover, the TGI in [6], in assay [7], in assay [8] and in [10] was above 100 µM throughout.
`CCCC(C(=O)Nc1cccc2[nH]cnc12)C(=O)OCC` (centres undefined): the TGI in assay [1], in assay [2], in assay [3], in assay [11], in assay [12] and in assay [4] was above 100 µM in each case. In addition, the TGI in assay [5], in assay [6], in [8], in assay [9] and in assay [10] was above 100 µM in each case.
